Experimental data published in patent US20220000964A1, “Compositions and Methods for Regulating Homeostasis of Chondrocytes, Extracellular Matrix, Articular Cartilage, and Phenotype of Arthritis” (Unigen, Inc., priority 2020, published 2022).
“And” between values parts separate entries of the source, which are not always exact repeats. Equal values may be shown once. Marks after values point to notes of the source that are not given here.

What was measured:
Format in all cases: in vivo, rat
[1] = tested on: CIA rats; assay: CIA rats, paw thickness; set-up: Paw thickness (Mean): unit not given beside the values; conditions: for % Inhibition Paw thickness (AUC): vs CIA + vehicle
[2] = tested on: CIA rats; assay: Collagen-induced arthritis (CIA) rats, arthritis severity index; conditions: for % Inhibition Arthritis index (AUC): vs CIA + vehicle
Description: Male Sprague Dawley rats (7-8 weeks old, n=40) were purchased from Charles River Laboratories Inc. (Wilmington, Mass., USA) and acclimated upon arrival for two weeks before being assigned randomly to their respective treatment groups: G1=Normal control (−) (n=10/group), G2=collagen-induced arthritis (CIA)+Vehicle (0.5% Carboxy Methylcellulose) (n=10/group), G3=CIA+Methotrexate (+) (75 μg/kg) (n=10/group), and G4=CIA+AMK (+) (200 mg/kg) (n=10/group). Treatment was initiated two weeks before model induction and lasted for an additional three weeks thereafter. Collagen type-II (Lot #845) from bovine nasal septum and Incomplete Freund's adjuvant (IFA) (Lot #SLBR0642v) were purchased from Elastin Products Company (Owensville, Mich., USA) and Sigma (St. Louise, Mo., USA), respectively. All materials were kept at suitable temperatures as recommended by the manufacturer. At the time of preparation, 60 mg of collagen was weighed and added to pre-chilled 15 mL 0.1 M acetic acid in a 60 mL-sized flask with a magnetic stirrer to yield 4 mg/mL concentration (Brand, et al., 2003; Rosloniec et al., 2001).
The mixture was dissolved by gently stirring overnight at 4° C. The next morning, the dissolved collagen was emulsified with equal volume of IFA (15 mL) to achieve a final concentration of 2 mg/mL collagen. Rats sedated with isoflurane were then primed intradermally with 400 μL of the emulsified collagen at the base of their tail at two sites using a 1 mL syringe fitted with a 26 G needle. The dissolved mixture was kept in an ice bucket and stirred between groups at the time of injection to preserve uniform consistency. On the seventh day, rats were inoculated with a booster dose of 2 mg/mL type II collagen emulsified with equal volume of incomplete adjuvant at 100 μL/rat/site.
Clinical findings such as arthritis severity index, paw thickness, ankle diameter (using Digital Absolute, Model #PK-0505CPX, Mitutoyo Corporation, Kawasaki, Japan), and pain sensitivity (using Randall Salitto, IITC Life Science Inc., Woodland Hills, Calif., USA) were monitored during the course of study. Urine was collected from overnight fasted rats using metabolic cages after three weeks of treatment post-model induction. At Necropsy, serum from the cardiac and synovial lavage (100 μL of saline was injected into the articular cavity and aspirated back to the syringe) for biomarkers and ankle joint for histopathology were collected from each animal.
Linear trapezoid rule was used to calculate area under the curve (AUC) for days 9-21. % Inhibition={(Mean value of treatment-mean value of CIA+)/(Mean value of control-mean value of CIA)}*100.
Male Sprague Dawley rats (7-8 weeks old, n=40) were purchased from Charles River Laboratories Inc. (Wilmington, Mass., USA) and acclimated upon arrival for two weeks before being assigned randomly to their respective treatment groups: G1=Normal control (−) (n=10/group), G2=collagen-induced arthritis (CIA)+Vehicle (0.5% Carboxy Methylcellulose) (n=10/group), G3=CIA+Methotrexate (+) (0.5 mg/kg) (n=10/group), and G4=CIA+AP (+) (200 mg/kg) (n=10/group). Treatment was initiated two weeks before model induction and lasted for an additional three weeks thereafter. Collagen type-II (Lot #845) from bovine nasal septum and Incomplete Freund's adjuvant (IFA) (Lot #SLBR0642v) were purchased from Elastin Products Company (Owensville, Mich., USA) and Sigma (St. Louise, Mo., USA), respectively. All materials were kept at suitable temperatures as recommended by the manufacturer. At the time of preparation, 60 mg of collagen was weighed and added to pre-chilled 15 mL 0.1 M acetic acid in a 60 mL-sized flask with a magnetic stirrer to yield 4 mg/mL concentration (Brand, et al., 2003; Rosloniec et al., 2001). The mixture was dissolved by gently stirring overnight at 4° C. The next morning, the dissolved collagen was emulsified with equal volume of IFA (15 mL) to achieve a final concentration of 2 mg/mL collagen.

[3] = tested on: CIA rats; assay: CIA rats, ankle diameter; set-up: Ankle diameter (Mean): unit not given here; conditions: for % Inhibition Ankle diameter (AUC): vs CIA + vehicle
[4] = AMK study, MTX 75 μg/kg, AMK 200 mg/kg
[5] = AP CIA study, Methotrexate 0.5 mg/kg, AP 200 mg/kg oral
[6] = AP study, MTX 0.5 mg/kg, AP 200 mg/kg
[7] = Boost, MTX 75 μg/kg, AMK 200 mg/kg
[8] = Day 9, MTX 75 μg/kg, AMK 200 mg/kg
[9] = Day 10, MTX 75 μg/kg, AMK 200 mg/kg
[10] = Day 11, MTX 75 μg/kg, AMK 200 mg/kg
[11] = Day 12, MTX 75 μg/kg, AMK 200 mg/kg
[12] = Day 13, MTX 75 μg/kg, AMK 200 mg/kg
[13] = Day 14, MTX 75 μg/kg, AMK 200 mg/kg
[14] = Day 15, MTX 75 μg/kg, AMK 200 mg/kg
[15] = Day 16, MTX 75 μg/kg, AMK 200 mg/kg
[16] = Priming, AP study, MTX 0.5 mg/kg, AP 200 mg/kg
[17] = Priming, MTX 75 μg/kg, AMK 200 mg/kg
[18] = AMK CIA study, MTX 75 μg/kg, AMK 200 mg/kg oral, AUC days 9-21

## CN(Cc1cnc2nc(N)nc(N)c2n1)c1ccc(C(=O)N[C@@H](CCC(=O)O)C(=O)O)cc1 [Methotrexate]
[1]; AMK CIA study, MTX 75 μg/kg, AMK 200 mg/kg oral, area under the swelling curve
  percent reduction in paw thickness / paw edema (AUC) vs vehicle-treated CIA: 71.7%
[1]; [4]
  AUC(d9-d21) (Mean ± SD) Paw thickness: 20.64 ± 0.21
[1]; [5]
  percent reduction in paw thickness / paw edema (AUC) vs vehicle-treated CIA: 93.8%
[1]; [6]
  AUC(d9-d21) (Mean ± SD) Paw thickness: 15.55 ± 0.21
[1]; Boost, AP study, MTX 0.5 mg/kg, AP 200 mg/kg
  Paw thickness: 2.95 ± 0.06
[1]; [7]
  Paw thickness (Mean): 3.07
[1]; [8]
  Paw thickness (Mean): 3.12
[1]; [9]
  Paw thickness (Mean): 3.17
[1]; [10]
  Paw thickness (Mean): 3.32
[1]; Day 12, AP study, MTX 0.5 mg/kg, AP 200 mg/kg
  Paw thickness: 2.99 ± 0.06
[1]; [11]
  Paw thickness (Mean): 3.47*
[1]; [12]
  Paw thickness (Mean): 3.53*
[1]; Day 14, AP study, MTX 0.5 mg/kg, AP 200 mg/kg
  Paw thickness: 3.01 ± 0.03
[1]; [13]
  Paw thickness (Mean): 3.60*
[1]; [14]
  Paw thickness (Mean): 3.98^†
[1]; Day 16, AP study, MTX 0.5 mg/kg, AP 200 mg/kg
  Paw thickness: 3.21 ± 0.05
[1]; [15]
  Paw thickness (Mean): 4.32^†
[1]; Day 17, MTX 75 μg/kg, AMK 200 mg/kg
  Paw thickness (Mean): 3.96^¥
[1]; Day 18, AP study, MTX 0.5 mg/kg, AP 200 mg/kg
  Paw thickness: 3.25 ± 0.05
[1]; Day 19, MTX 75 μg/kg, AMK 200 mg/kg
  Paw thickness (Mean): 3.06^¥
[1]; Day 20, AP study, MTX 0.5 mg/kg, AP 200 mg/kg
  Paw thickness: 3.23 ± 0.06
[1]; Day 21, MTX 75 μg/kg, AMK 200 mg/kg
  Paw thickness (Mean): 3.07^€
[1]; [16]
  Paw thickness: 2.93 ± 0.07
[1]; [17]
  Paw thickness (Mean): 3.06
[1]; MTX 75 μg/kg, AMK 200 mg/kg
  % Inhibition Paw thickness (AUC): 71.71%
[1]; MTX 0.5 mg/kg, AP 200 mg/kg
  % Inhibition Paw thickness (AUC): 93.81%
[2]; [18]
  percent reduction of area under the arthritis severity curve vs vehicle-treated CIA: 62.55% and 62.6%
[2]; [4]
  AUC(d9-d21) (Mean ± SD) Arthritis index: 4.87 ± 0.21
[2]; [5]
  average arthritis severity score at the end of the study: 1.1±0.17
  percent reduction of area under the arthritis severity curve vs vehicle-treated CIA: 78.8%
[2]; [6]
  AUC(d9-d21) (Mean ± SD) Arthritis index: 5.00 ± 0.48
[2]; Boost, MTX 0.5 mg/kg, AP 200 mg/kg
  Arthritis Index, Mean: 0.00
[2]; CIA, MTX 75 μg/kg, AMK 200 mg/kg oral, Boost
  Arthritis Index, Mean: 0.00
[2]; CIA, MTX 75 μg/kg, AMK 200 mg/kg oral, Day 9
  Arthritis Index, Mean: 0.00
[2]; CIA, MTX 75 μg/kg, AMK 200 mg/kg oral, Day 10
  Arthritis Index, Mean: 0.00
[2]; CIA, MTX 75 μg/kg, AMK 200 mg/kg oral, Day 11
  Arthritis Index, Mean: 0.00
[2]; CIA, MTX 75 μg/kg, AMK 200 mg/kg oral, Day 12
  Arthritis Index, Mean: 0.23*
[2]; CIA, MTX 75 μg/kg, AMK 200 mg/kg oral, Day 13
  Arthritis Index, Mean: 0.46^¥
[2]; CIA, MTX 75 μg/kg, AMK 200 mg/kg oral, Day 14
  Arthritis Index, Mean: 0.70^¥
[2]; CIA, MTX 75 μg/kg, AMK 200 mg/kg oral, Day 15
  Arthritis Index, Mean: 1.10^€
[2]; CIA, MTX 75 μg/kg, AMK 200 mg/kg oral, Day 16
  Arthritis Index, Mean: 1.50^€
[2]; CIA, MTX 75 μg/kg, AMK 200 mg/kg oral, Priming
  Arthritis Index, Mean: 0.00
[2]; CIA, MTX 75 μg/kg, AMK 200 mg/kg oral, day 17
  Arthritis Index, Mean: 1.76^€
[2]; CIA, MTX 75 μg/kg, AMK 200 mg/kg oral, day 19
  Arthritis Index, Mean: 2.03^€
[2]; CIA, MTX 75 μg/kg, AMK 200 mg/kg oral, day 21 (end of study)
  Arthritis Index, Mean: 1.78±0.79
[2]; CIA, MTX 75 μg/kg, AMK 200 mg/kg oral, day 21 (end of study), listed as MTX
  Arthritis Index, Mean: 1.78^€
[2]; Day 10, MTX 0.5 mg/kg, AP 200 mg/kg
  Arthritis Index, Mean: 0
[2]; Day 11, MTX 0.5 mg/kg, AP 200 mg/kg
  Arthritis Index, Mean: 0
[2]; Day 12, MTX 0.5 mg/kg, AP 200 mg/kg
  Arthritis Index, Mean: 0.05**
[2]; Day 13, MTX 0.5 mg/kg, AP 200 mg/kg
  Arthritis Index, Mean: 0**
[2]; Day 14, MTX 0.5 mg/kg, AP 200 mg/kg
  Arthritis Index, Mean: 0**
[2]; Day 15, MTX 0.5 mg/kg, AP 200 mg/kg
  Arthritis Index, Mean: 0.35**
[2]; Day 16, MTX 0.5 mg/kg, AP 200 mg/kg
  Arthritis Index, Mean: 0.875**
[2]; Day 17, MTX 0.5 mg/kg, AP 200 mg/kg
  Arthritis Index, Mean: 1**
[2]; Day 19, MTX 0.5 mg/kg, AP 200 mg/kg
  Arthritis Index, Mean: 1.075**
[2]; Day 20, MTX 0.5 mg/kg, AP 200 mg/kg
  Arthritis Index, Mean: 1.1**
[2]; Priming, MTX 0.5 mg/kg, AP 200 mg/kg
  Arthritis Index, Mean: 0.00
[2]; MTX 75 μg/kg, AMK 200 mg/kg
  % Inhibition Arthritis index (AUC): 62.55%
[2]; MTX 0.5 mg/kg, AP 200 mg/kg
  % Inhibition Arthritis index (AUC): 78.78%
[3]; [18]
  percent reduction in ankle diameter (AUC) vs vehicle-treated CIA: 65.94% and 65.9%
[3]; [4]
  AUC(d9-d21) (Mean ± SD) Ankle diameter: 39.11 ± 0.21
[3]; [5]
  percent reduction in ankle diameter (AUC) vs vehicle-treated CIA: 93.6%
[3]; [6]
  AUC(d9-d21) (Mean ± SD) Ankle diameter: 30.94 ± 0.11
[3]; [7]
  Ankle diameter (Mean): 6.08
[3]; [8]
  Ankle diameter (Mean): 6.12
[3]; [9]
  Ankle diameter (Mean): 6.17
[3]; [10]
  Ankle diameter (Mean): 6.33
[3]; [11]
  Ankle diameter (Mean): 6.50*
[3]; [12]
  Ankle diameter (Mean): 6.67*
[3]; [13]
  Ankle diameter (Mean): 6.85*
[3]; [14]
  Ankle diameter (Mean): 7.06*
[3]; [15]
  Ankle diameter (Mean): 7.28*
[3]; [16]
  Ankle diameter (Mean): 0.10
[3]; [17]
  Ankle diameter (Mean): 6.03
[3]; day 17, MTX 75 μg/kg, AMK 200 mg/kg
  Ankle diameter (Mean): 7.32*
[3]; day 19, MTX 75 μg/kg, AMK 200 mg/kg
  Ankle diameter (Mean): 6.03†
[3]; day 21, MTX 75 μg/kg, AMK 200 mg/kg
  Ankle diameter (Mean): 6.08†
[3]; MTX 75 μg/kg, AMK 200 mg/kg
  % Inhibition Ankle diameter (AUC): 65.94%
[3]; MTX 0.5 mg/kg, AP 200 mg/kg
  % Inhibition Ankle diameter (AUC): 93.59%
